Results published in patent US12655107B2 (The United States of America, as represented by the …, priority 2018, dated 2026).

What was measured:
[1] = tested on: γH2AX foci in HCT116 cells; experiment: γH2AX detection by immunofluorescence; type: cell-based, human; settings: HCT116, 1 μM, 3 h
Protocol: To evaluate the DNA damaging effect of 50 in cancer cells, γH2AX foci were assessed by immunofluorescence microscopy in human […] HCT116 cells. After incubation with the compounds for 3 h, the HCT116 cells were stained with γH2AX antibodies.
HCT116 cells (2×10^4 cells/mL) were grown in culture medium and treated with compounds for 3 h at 37° C. […] Cells were permeabilized with 0.5% Triton X-100 in PBS at 0° C. for 30 min. Dish was blocked with 5% goat serum/PBS at 37° C. for 3 h. […] The dishes were again washed six times with blocking buffer. Digital images were recorded using an LSM710 microscope (Zeiss, Germany) and analyzed with ZEN software.

[2] = tested on: HCT116 cells; experiment: Flow cytometry apoptosis assay; type: cell-based, human
Protocol: To evaluate the induction of apoptosis by 50, flow cytometry assays were performed in HCT116 cells.
The stained cells were analyzed by using flow cytometry (BD, FACSCalibur, USA) within I h. The experiments were repeated three times independently.

[3] = tested on: HCT116 xenograft; experiment: In vivo antitumor activity, HCT116 xenograft
[4] = tested on: MCF-7 xenograft; experiment: In vivo antitumor activity, MCF-7 xenograft; set-up: species or system nude mice; tumor weight inhibitions (TWI): dose or concentration left out as unconfirmed
[5] = Pharmacokinetic study in rat; settings: SD rats
Protocol: The SD rats were divided into two groups (n=3) and treated by intravenous injection (i.v.) at 1 mg/kg dose and intragastrical administration (i.g.) at 5 mg/kg dose, respectively.
A pharmacokinetic (PK) study in vivo of 50 was performed in Sprague-Dawley (SD) rats. The SD rats were randomly divided into two groups […] and treated by intravenous injection (iv) at 1 mg/kg dose or an intragastrical administration (ig) at 5 mg/kg dose, respectively. Plasma samples were collected postdosing and the concentration of 50 was measured.
Plasma samples (100 μL) were obtained after centrifugation for 10 min at 3000 rpm and stored at −20° C. until used for analysis. The plasma was detected through LC-MS-MS.

[6] = target: T1, Top1-DNA covalent cleavage complexes in HCT116 cells (Homo sapiens, UniProt P11387); experiment: Immunocomplex of enzyme to DNA (ICE) assay; type: cell-based; settings: HCT116, 25, 50 and 100 μM
T1 construct: endogenous in cells; host or cells: HCT116 (human colon cancer)
T1 sequence (P11387 2-765 limits assumed, one chain of several): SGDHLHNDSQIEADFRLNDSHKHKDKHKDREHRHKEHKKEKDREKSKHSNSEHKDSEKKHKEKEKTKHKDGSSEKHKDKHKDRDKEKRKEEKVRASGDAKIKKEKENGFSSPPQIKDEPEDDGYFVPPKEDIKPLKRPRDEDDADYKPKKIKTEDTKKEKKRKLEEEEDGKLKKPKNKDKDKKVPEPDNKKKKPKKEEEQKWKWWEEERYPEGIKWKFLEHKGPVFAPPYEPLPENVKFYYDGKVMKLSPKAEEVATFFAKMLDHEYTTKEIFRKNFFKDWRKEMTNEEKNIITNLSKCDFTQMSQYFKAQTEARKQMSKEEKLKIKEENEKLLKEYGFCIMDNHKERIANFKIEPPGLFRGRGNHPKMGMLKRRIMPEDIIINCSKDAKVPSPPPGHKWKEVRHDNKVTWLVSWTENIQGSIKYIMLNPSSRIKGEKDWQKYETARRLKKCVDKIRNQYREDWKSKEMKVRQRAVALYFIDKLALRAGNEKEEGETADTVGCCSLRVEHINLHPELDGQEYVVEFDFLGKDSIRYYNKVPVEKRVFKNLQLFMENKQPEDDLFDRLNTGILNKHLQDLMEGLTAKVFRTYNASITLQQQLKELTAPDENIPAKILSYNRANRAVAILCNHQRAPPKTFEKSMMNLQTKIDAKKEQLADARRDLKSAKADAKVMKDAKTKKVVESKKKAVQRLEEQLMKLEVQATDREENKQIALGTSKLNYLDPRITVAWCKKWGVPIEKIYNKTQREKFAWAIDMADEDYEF

## CNCCn1c(=O)c2cc(OC)c(OC)cc2c2ccc3cc4c(cc3c21)OCO4 [Compound 50, 2,3-dimethoxy-12-(2-(methylamino)ethyl)-[1,3]dioxolo[4′5′:4,5]benzo[1,2-c]phenanthridin-13(12H)-one]
[1]
  γH2AX foci: effectively induced γH2AX foci
[2]; HCT116, 24 h, 2 μM
  early apoptotic cells: 27.95%
[2]; HCT116, 24 h, 0.5, 1 and 2 μM
  induction of apoptosis: clearly induced HCT116 cells apoptosis in a dose-dependent manner
[3]; HCT116 model, 20 μM dose (so in the source), ip daily
  tumor weight inhibitions (TWI): 76.9%
[3]; HCT116 xenograft, i.p. once every day
  tumor volume: significantly reduced the tumor volume in a dose-dependent manner
[4]; MCF-7 model, ip daily
  tumor weight inhibitions (TWI): 71.8%
[4]; MCF-7 xenograft, 5, 10, 20 mg/kg ip daily
  tumor volume: significantly reduced the tumor volume in a dose-dependent manner
[5]; i.g. 5 mg/kg
  AUC0→t: 48.3 ± 28 ng·h/mL
  Cmax: 19 ± 9 ng/mL
  Tmax: 2 ± 0 h
[5]; i.g. 5 mg/kg vs i.v. 1 mg/kg
  F (%): 20.4%
[5]; i.v. 1 mg/kg
  AUC0→t: 47.2 ± 1.8 ng·h/mL
  AUC0→∞: 49.8 ± 1.5 ng·h/mL
  MRTINF: 1.46 ± 0.027 h
  T1/2: 1.21 h
[6]
  induction of cellular Top1cc: induced the formation of cellular TOP1 cc in a dose-dependent manner
